# Assay results reported in patent US5041426A, “Immune system enhancing 3-β-d-ribofuranosylthiazolo[4,5-d]pyridimine nucleosides and nucleotides” (priority 1988, dated 1991).
# What was measured:
# San Angelo Virus = type: in vivo, mouse; conditions: compound 7 5 mg/kg at -24 h, saline days 0-6; of mice that died
# Friend Leukemia virus = Friend Leukemia virus induced spleenomegaly; type: in vivo; conditions: further test
# Text: As is evident from the above tables antiviral activity against a variety of viruses is seen.
# Mouse Cytomegalovirus = experiment: Antiviral activity against mouse cytomegalovirus infection in mice
# P388 [1] = experiment: Mean life span and viable tumor cells of P388 inoculated mice, by delivery schedule; type: in vivo, mouse; conditions: qd; for Postinoculation Life Span: pooled 37, 62 or 104 mg/kg/injection; for Change in Life Span / Viable Cells Day 6: pooled doses
# Method: In this example as summarized in table 30, different drug delivery regimen were utilized for compound 7 against P388 in the mouse and the postinoculation life span, the change in life span and the number of viable tumor cells at day 6 measured. For this test the data shown are pooled by schedule without regard for dosage. Each treatment group included a total of 15 mice divided into sub-groups of 5 mice treated respectively with 37, 62 or 104 mg/kg/injection of drug per sub-group. After treatment the test animals were monitored for survival.
# ^a P388 ascites cells (1 × 10^6) were implanted ip in
# BDF1 female mice on day 0, and ip bolus injections of drug were
# delivered once daily on the days indicated. The drug was delivered on the
# basis of 0.01 ml/g mouse weight. Control mice received a 0.09% solution o
# NaCl delivered on the same basis.
# [2] = test system: Mastocytoma (P815) tumor cells; experiment: In vivo potentiation of cytotoxic lymphocytes activity against mastocytoma tumor cells; design: species or system mouse; conditions: for % Cytotoxicity: DBA/2 mice, compound 7 2 mg/mouse, interleukin-2 50 U per mouse
# Method: ^a Ten mice in each group were inoculated with 2 × 10^6
# tumor cells. After 5 hours, saline or nucleoside compound 7 solution (2
# mg/mouse) was administered to each mouse. On days 3,5,7 or 9, spleen cell
# were isolated and their cytotoxicity was determined against P815 tumor
# cells as described in Gonzales and Sharma.
# Compound 7 was tested to determine whether or not it can increase cytotoxic lymphocytes response against mastocytoma tumor cells. In the test mice were immunized with mastocytoma cells (P815) and after 5 hours compound 7 as a solution was given in a dose of […] per mouse.
# P388 [3] = experiment: Response of P388 inoculated mice to various dosages, inocula and schedules; type: in vivo, mouse
# Text: For this example varying concentrations of the number of test cells utilized for P388 inoculum and concentrations of compound 7 were utilized with various schedules of drug administration.
# ^a P388 ascites cells were implanted ip in the concentrations
# indicated in BDF1 female mice on day 0, and ip bolus injections of
# drug were delivered once daily on the days indicated in the conentrations
# indicated. Control mice received a 0.09% solution of NaCl delivered on th
# [4] = test system: Herpes Simplex Virus Type 1; experiment: Antiviral activity against Herpes simplex virus type 1 infection in mice; type: in vivo, mouse; conditions: at -48, -24, and -2 h
# Rat Coronavirus = experiment: Antiviral activity against rat coronavirus infection in suckling rats; type: in vivo; conditions: half daily doses at -24 and -18 h, of rats that died
# Text: Four to five day old suckling rats were infected intranasally with rat coronavirus. One day previously a divided intraperitoneal dose of compound 7 or placebo was given. As shown in the following Table 19, a high percentage of the rats treated with compound 7 survived this lung infection. Further the rats that died lived longer than the placebo-treated controls.
# ^b Of rats that died. Survivors lived through 21 days.
# [5] = test system: Encephalomyocarditis virus; experiment: Single versus multiple treatments on Encephalomyocarditis virus infection in mice; type: in vivo, mouse; conditions: for Mean Survival Time: of mice that died
structure (smiles),measurement,setting,value
"Nc1nc2c(sc(=O)n2[C@@H]2O[C@H](CO)[C@@H](O)[C@H]2O)c(=O)[nH]1 [Compound 7, 5-Amino-3-β-D-ribofuranosylthiazolo[4,5-d]pyrimidine-2,7(6H)-dione]",Mean Survival Time,San Angelo Virus,9.6 ± 1.6 days
same,antiviral activity against Friend Leukemia virus induced spleenomegaly,Friend Leukemia virus,little or no antiviral activity
same,Mean Survival Time,"Mouse Cytomegalovirus; 50 mg/kg/day, once a day at -2 h and days 2, 4, 6 (therapeutic)",6.3 ± 1.1 days
same,Mean Survival Time,"Mouse Cytomegalovirus; 50 mg/kg/day, single dose 24 h pre-virus (prophylactic)",6.5 ± 0.8 days
same,Mean Survival Time,"Mouse Cytomegalovirus; 100 mg/kg/day, once a day at -2 h and days 2, 4, 6 (therapeutic)",6.0 ± 0.8 days
same,Mean Survival Time,"Mouse Cytomegalovirus; 100 mg/kg/day, single dose 24 h pre-virus (prophylactic)",7.0 ± 1.4 days
same,cure,"Mouse Cytomegalovirus; 200 mg per kg, prophylactic mode",100%
same,Mean Survival Time,"Mouse Cytomegalovirus; 200 mg/kg/day, half-daily doses 24 and 16 h pre-virus (prophylactic)",> 21 days
same,Postinoculation Life Span,"P388 [1]; day 2,4",8.73 ± 0.59 days
same,Change in Life Span,"P388 [1]; day 2,4",7 % of Control
same,Viable Cells Day 6,"P388 [1]; day 2,4",66 % of Control
same,Postinoculation Life Span,"P388 [1]; day 2-6, p < 0.001",9.13 ± 0.52 days
same,Change in Life Span,P388 [1]; day 2-6,12 % of Control
same,Viable Cells Day 6,P388 [1]; day 2-6,49 % of Control
same,Postinoculation Life Span,P388 [1]; day 2,8.60 ± 0.51 days
same,Change in Life Span,P388 [1]; day 2,5 % of Control
same,Viable Cells Day 6,P388 [1]; day 2,73 % of Control
same,% Cytotoxicity,"[2]; day 3, 4320 min",30%
same,% Cytotoxicity,"[2]; day 5, 7200 min",24%
same,% Cytotoxicity,"[2]; day 7, 10080 min",32%
same,% Cytotoxicity,"[2]; day 9, 12960 min",27%
same,cytotoxicity versus control group,[2]; p<0.05,statistically significant higherly cytotoxicity than the control group
same,groups showing an increase in life span,P388 [3]; 26 of the 34 groups,76%
same,% Increased Life Span,"P388 [3]; Study 1, 1 × 10^2 cells, 37 mg/kg/inj day 1-9",0%
same,% Increased Life Span,"P388 [3]; Study 1, 1 × 10^2 cells, 37 mg/kg/inj day 1, 3 mice, printed as cures",2 cures
same,% Increased Life Span,"P388 [3]; Study 1, 1 × 10^2 cells, 62 mg/kg/inj day 1-9",33%
same,% Increased Life Span,"P388 [3]; Study 1, 1 × 10^2 cells, 62 mg/kg/inj day 1, 3 mice, printed as cures",1 cure
same,% Increased Life Span,"P388 [3]; Study 1, 1 × 10^2 cells, 104 mg/kg/inj day 1",0%
same,% Increased Life Span,"P388 [3]; Study 1, 1 × 10^2 cells, 104 mg/kg/inj day 1-9",10%
same,% Increased Life Span,"P388 [3]; Study 2, 1 × 10^2 cells, 8 mg/kg/inj day 1",9%
same,% Increased Life Span,"P388 [3]; Study 2, 1 × 10^2 cells, 13 mg/kg/inj day 1",7%
same,% Increased Life Span,"P388 [3]; Study 2, 1 × 10^2 cells, 22 mg/kg/inj day 1",7%
same,% Increased Life Span,"P388 [3]; Study 2, 1 × 10^2 cells, 37 mg/kg/inj day 1",3%
same,% Increased Life Span,"P388 [3]; Study 3, 1 × 10^4 cells, 37 mg/kg/inj day 1",2%
same,% Increased Life Span,"P388 [3]; Study 3, 1 × 10^4 cells, 37 mg/kg/inj day 1-9",0%
same,% Increased Life Span,"P388 [3]; Study 3, 1 × 10^4 cells, 62 mg/kg/inj day 1",0%
same,% Increased Life Span,"P388 [3]; Study 3, 1 × 10^4 cells, 62 mg/kg/inj day 1-9",2%
same,% Increased Life Span,"P388 [3]; Study 3, 1 × 10^4 cells, 104 mg/kg/inj day 1",0%
same,% Increased Life Span,"P388 [3]; Study 3, 1 × 10^4 cells, 104 mg/kg/inj day 1-9",6%
same,% Increased Life Span,"P388 [3]; Study 4, 1 × 10^6 cells, 37 mg/kg/inj day 1",0%
same,% Increased Life Span,"P388 [3]; Study 4, 1 × 10^6 cells, 37 mg/kg/inj day 1-9",5%
same,% Increased Life Span,"P388 [3]; Study 4, 1 × 10^6 cells, 62 mg/kg/inj day 1",0%
same,% Increased Life Span,"P388 [3]; Study 4, 1 × 10^6 cells, 62 mg/kg/inj day 1-9",5%
same,% Increased Life Span,"P388 [3]; Study 4, 1 × 10^6 cells, 104 mg/kg/inj day 1",9%
same,% Increased Life Span,"P388 [3]; Study 4, 1 × 10^6 cells, 104 mg/kg/inj day 1-9",23%
same,% Increased Life Span,"P388 [3]; Study 5, 1 × 10^6 cells, 37 mg/kg/inj day 2",0%
same,% Increased Life Span,"P388 [3]; Study 5, 1 × 10^6 cells, 37 mg/kg/inj day 2,4",8%
same,% Increased Life Span,"P388 [3]; Study 5, 1 × 10^6 cells, 37 mg/kg/inj day 2-6",8%
same,% Increased Life Span,"P388 [3]; Study 5, 1 × 10^6 cells, 62 mg/kg/inj day 2",5%
same,% Increased Life Span,"P388 [3]; Study 5, 1 × 10^6 cells, 62 mg/kg/inj day 2,4",8%
same,% Increased Life Span,"P388 [3]; Study 5, 1 × 10^6 cells, 62 mg/kg/inj day 2-6",15%
same,% Increased Life Span,"P388 [3]; Study 5, 1 × 10^6 cells, 104 mg/kg/inj day 2",10%
same,% Increased Life Span,"P388 [3]; Study 5, 1 × 10^6 cells, 104 mg/kg/inj day 2,4",5%
same,% Increased Life Span,"P388 [3]; Study 5, 1 × 10^6 cells, 104 mg/kg/inj day 2-6",12%
same,toxicity,"P388 [3]; Study 6, 140 mg/kg/inj day 2,4,6,8, 7 mice",toxic in one animal
same,% Increased Life Span,"P388 [3]; Study 6, 1 × 10^6 cells, 140 mg/kg/inj day 2",4%
same,% Increased Life Span,"P388 [3]; Study 6, 1 × 10^6 cells, 140 mg/kg/inj day 2,4,6,8",21%
same,% Increased Life Span,"P388 [3]; Study 6, 1 × 10^6 cells, 140 mg/kg/inj day 2,6",20%
same,Mean Survival Time,[4]; 50 mg/kg/day,14.8 ± 5.0 days
same,Mean Survival Time,[4]; 100 mg/kg/day,11.4 ± 1.8 days
same,Mean Survival Time,[4]; 200 mg/kg/day,11.0 ± 1.7 days
same,Mean Survival Time,Rat Coronavirus; 50,10.1 ± 2.3 days
same,Mean Survival Time,Rat Coronavirus; 100,10.2 ± 1.8 days
same,Mean Survival Time,Rat Coronavirus; 200,13.0 ± 1.0 days
same,Mean Survival Time,"[5]; 200 mg/kg at -24 h, then 50 mg/kg/day day 0-6",9.5 ± 2.1 days
same,Mean Survival Time,[5]; 200 mg/kg at -24 h only,6.0 ± 1.3 days
same,"protection, daily 50 mg/kg versus single 200 mg/kg dose",[5]; daily dose of 50 mg/kg after 200 mg/kg,protected to a greater degree
